Where “and” joins values, the source holds several entries; their conditions need not be identical. Identical values can stand only once.
Tests used:
[1] = Hygroscopicity of crystalline hydrochloride (9) crystallized from various solvents; type: physicochemical
Description: Crystallization of (1R,2R)-1-methyl-2-(2-methylpropanoyloxy)propyl (2S)-2-amino-3-(3,4-dihydroxyphenyl)propanoate hydrochloride (9) was crystallized using the solvents listed in Table 1 on an 80 mg scale.

[2] = oral administration; cited from earlier work

CC(C)C(=O)O[C@H](C)[C@@H](C)OC(=O)[C@@H](N)Cc1ccc(O)c(O)c1.CS(=O)(=O)O
melting point: 181.2 to 186 °C

CC(C)C(=O)O[C@H](C)[C@@H](C)OC(=O)[C@@H](N)Cc1ccc(O)c(O)c1.Cl [Compound 9, (1R,2R)-1-Methyl-2-(2-methylpropanoyloxy)propyl (2S)-2-Amino-3-(3,4-dihydroxyphenyl)propanoate Hydrochloride]
Hygroscopicity ([1]; crystallized from acetonitrile): None
Hygroscopicity ([1]; crystallized from isopropanol-ethyl acetate): None
Hygroscopicity ([1]; crystallized from isopropanol-methyl tert-butyl ether): None
Hygroscopicity ([1]; crystallized from tetrahydrofuran-diisopropyl ether): None
Hygroscopicity ([1]; crystallized from tetrahydrofuran-hexane): None
Hygroscopicity ([1]; crystallized from tetrahydrofuran-methyl tert-butyl ether): None
Hygroscopicity ([1]; crystallized from water-acetonitrile): None
Hygroscopicity ([1]; crystallized from water-methyl tert-butyl ether): None
melting point: 164.7 to 166.2 °C and 164.9 to 166.4 °C

CS(=O)(=O)O.C[C@@H](OC(=O)c1ccccc1)[C@@H](C)OC(=O)[C@@H](N)Cc1ccc(O)c(O)c1 [Compound 11, (1R,2R)-1-Methyl-2-phenylcarbonyloxypropyl (2S)-2-Amino-3-(3,4-dihydroxyphenyl)propanoate Mesylate]
melting point: 94.4 °C (dec.)

CC(C)(C)C(=O)Oc1ccc(C[C@H](N)C(=O)O)cc1O [NB-355]
duration of circulating levodopa [2]: prolonged
plasma concentrations of levodopa [2]: low

Source: patent US8324272B2 (XenoPort, Inc., priority 2006, dated 2012)
